PMC11547576, “Identification of a New Promising BAG3 Modulator Featuring the Imidazopyridine Scaffold” (Molecules, 2024)

Legend:
BAG3 full-length = biological target: T1, BAG3 full-length (Homo sapiens, UniProt O95817); test: SPR assay on BAG3 full-length protein; settings: Biacore T200, 0 to 100 µM, 25 °C, 1:1 interaction model, n.b. = no binding; for Kd: read-out: BAG3 FULL KD (µM) ± SD
T1 construct: both the full-length BAG3 protein and its BAG domain; purchased Novus Biologicals (Littleton, CO, USA)
Description: (§1) In this study, we employed SPR experiments to evaluate the interactions between synthesized compounds (1–14) and both the full-length BAG3 protein and its BAG domain. Only the compounds that successfully bound to the full-length BAG3 protein were tested for their interaction with the BAG domain. Protein immobilization was achieved using the amide coupling method, and the compounds were tested at ten different concentrations, ranging from 0 to 100 µM. A known binder of BAG3-BD, LK4 ((Z)-ethyl 2-(5-(3,4-dihydroxybenzylidene)-2,4-dioxothiazolidin-3yl)acetate), was used as a positive control. […] Compound 14 also bound the target but with slightly higher KD values, still within the micromolar range. The three identified compounds were further investigated to understand whether this binding induced an effect on BAG3 protein functions. The KD values reported in Table 1 for the known inhibitor LK4 differ from those in previous studies due to the use of a newer-generation instrument for the SPR experiments. The earlier experiments utilized the Biacore 3000, whereas the current study employed the Biacore T200. While ligand binding was confirmed in both sets of experiments, the slightly different KD values are attributed to the enhanced sensitivity of the Biacore T200.
(§2) Recombinant human BAG3 protein (Bcl2-associated athanogene 3) was sourced from Novus Biologicals (Littleton, CO, USA), while the BAG3 domain (BAG3-BD) was procured from ARETA International S.r.l. (Gerenzano, Italy). We utilized (Z)-ethyl 2-(5-(3,4-dihydroxybenzylidene)-2,4-dioxothiazolidin-3-yl)acetate (LK4), a known BAG3 inhibitor previously identified by our group. Surface Plasmon Resonance (SPR) spectroscopy was employed to assess the affinity of synthesized molecules for BAG3 and BAG-BD using a Biacore T200 optical biosensor equipped with CM5 sensor chips (Cytiva, Marlborough, MA, USA). BAG3 and BAG-BD were immobilized on the CM5 sensor chip using standard amine-coupling protocols. BAG3 protein (0.067 μg/μL in 10 mM CH3COONa, pH 4.5) was immobilized at a flow rate of 10 μL/min, resulting in a density of 14 kRU. The BAG3 domain (0.38 μg/μL in 10 mM CH3COONa, pH 4.5) was immobilized under similar conditions, achieving a density of 4 kRU. For the experiments, BAG3 and BAG-BD surfaces, along with an unmodified reference surface, were prepared for simultaneous analyses.
Compounds 1–14 and LK4 were dissolved to 10 mM in 100% DMSO and then diluted 1:20 (v/v) in PBS-P buffer (0.2 M phosphate buffer, 27 mM KCl, 1.37 M NaCl, 0.5% surfactant P20) to achieve a final DMSO concentration of 5.0%. These compounds were injected in a concentration series (1:2 dilution, 10 different concentrations) ranging from 0 to 100 μM, prepared in 96-well plates. SPR experiments were conducted at 25 °C with a flow rate of 20 μL/min, featuring 90 s of association and 400 s of dissociation monitoring. Changes in mass, reflected as resonance units (RU), were recorded to determine binding responses. KD values were calculated using Biaevaluation software 3.2 by globally fitting the double-referenced association and dissociation data to a 1:1 interaction model. See Supplementary Materials for all the sensorgrams (Figures S43–S50).

BAG3-BD = biological target: T2, BAG3-BD (Homo sapiens, UniProt O95817); test: SPR assay on BAG domain of BAG3 (BAG3-BD); assay type: binding; settings: Biacore T200, 0 to 100 µM, 25 °C, 1:1 interaction model, read-out: BAG DOMAIN KD (µM) ± SD
T2 construct: the BAG3 domain (BAG3-BD) was procured from ARETA International S.r.l; purchased ARETA International S.r.l; (Gerenzano, Italy)
T2 sequence (O95817 421-498 limits assumed): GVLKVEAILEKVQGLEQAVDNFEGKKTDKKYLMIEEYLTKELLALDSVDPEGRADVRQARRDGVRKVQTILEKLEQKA
Description: as §1
as §2, with “For the experiments, BAG3 and BAG-BD surfaces, along with an unmodified reference surface, were prepared for simultaneous analyses.” left out
Compounds 1–14 and LK4 were dissolved to 10 mM in 100% DMSO and then diluted 1:20 (v/v) in PBS-P buffer (0.2 M phosphate buffer, 27 mM KCl, 1.37 M NaCl, 0.5% surfactant P20) to achieve a final DMSO concentration of 5.0%. […] Changes in mass, reflected as resonance units (RU), were recorded to determine binding responses. KD values were calculated using Biaevaluation software 3.2 by globally fitting the double-referenced association and dissociation data to a 1:1 interaction model. […]

HeLa cells = test: MTT cell viability assay on HeLa cells; assay type: cell-based; settings: 72 h
Description: Elevated expression levels of BAG3 are strongly associated with signaling pathways in various types of malignant cells; consequently, reducing the activity of this co-chaperone inhibits cell proliferation, triggers apoptosis, and induces cell cycle arrest. To assess the activity of compounds 10, 12, and 14, cytotoxicity assays were performed on HeLa cells, which were chosen for their tendency to overexpress BAG3 proteins. MTT assays were conducted by exposing HeLa cells to different concentrations of the compounds (25, 50, and 100 µM) for 72 h. Additionally, 10% DMSO was used as a positive control, while 0.1% DMSO served as a negative control. […] The next step involved the assessment of the cytotoxicity of the most promising candidate, 10, on healthy cells to determine its safety profile. To achieve this, MTT assays were conducted on HaCat cells over 72 h.
Human cervical carcinoma cell lines (HeLa, kindly donated by Prof. Ornella Moltedo, Department of Pharmacy, University of Salerno) and immortalized human keratinocytes (HaCaT) were cultured in a DMEM/high glucose medium. This medium was supplemented with 10% FBS (v/v), 2 mM/L glutamine, 100 U/mL penicillin, and […] streptomycin. The cells were maintained at 37 °C in a humidified atmosphere with 5% CO2. To ensure logarithmic growth, the cells were sub-cultured every 2 days.
Cell viability was assessed by measuring mitochondrial metabolic activity using a colorimetric assay, which involves the reduction of 3-[4,5-dimethylthiazol-2,5-diphenyl-2H-tetrazolium bromide (MTT) to purple formazan. Stock solutions of compounds 10, 12, and 14 (50 mM in DMSO) were stored at −20 °C in the dark and diluted just before being added to the sterile culture medium. Briefly, HeLa cells (3.5 × 10^3 cells/well) were seeded in triplicate in 96-well plates, and after 24 h, to allow for attachment, the cells were treated with various concentrations of the tested compounds (25, 50 and 100 μM), 0.1% (v/v) DMSO as a negative control, and 10% (v/v) DMSO as a positive control for 72 h. Following treatment, 20 μL of MTT (5 mg/mL in PBS) was added to each well, and the cells were incubated for an additional 3 h at 37 °C. The formazan crystals formed were then dissolved in 100 μL of a buffer containing 50% (v/v) N, N-dimethylformamide and 20% SDS (pH 4.5). Absorbance was measured at 570 nm using a Multiskan™ GO Microplate Spectrophotometer (Thermo Fisher Scientific, Waltham, MA, USA,). […] The IC50 values, representing the concentration causing 50% inhibition of cell survival, were calculated and compared to control cells treated with DMSO using GraphPad Prism 8.0 software through nonlinear regression of dose–response inhibition. Only for compound 10 was the IC50 also assessed on HaCaT cells (5.0 × 10^3 cells/well) after 72 h of treatment.

T1 sequence (O95817 whole entry, the tested form may be a part): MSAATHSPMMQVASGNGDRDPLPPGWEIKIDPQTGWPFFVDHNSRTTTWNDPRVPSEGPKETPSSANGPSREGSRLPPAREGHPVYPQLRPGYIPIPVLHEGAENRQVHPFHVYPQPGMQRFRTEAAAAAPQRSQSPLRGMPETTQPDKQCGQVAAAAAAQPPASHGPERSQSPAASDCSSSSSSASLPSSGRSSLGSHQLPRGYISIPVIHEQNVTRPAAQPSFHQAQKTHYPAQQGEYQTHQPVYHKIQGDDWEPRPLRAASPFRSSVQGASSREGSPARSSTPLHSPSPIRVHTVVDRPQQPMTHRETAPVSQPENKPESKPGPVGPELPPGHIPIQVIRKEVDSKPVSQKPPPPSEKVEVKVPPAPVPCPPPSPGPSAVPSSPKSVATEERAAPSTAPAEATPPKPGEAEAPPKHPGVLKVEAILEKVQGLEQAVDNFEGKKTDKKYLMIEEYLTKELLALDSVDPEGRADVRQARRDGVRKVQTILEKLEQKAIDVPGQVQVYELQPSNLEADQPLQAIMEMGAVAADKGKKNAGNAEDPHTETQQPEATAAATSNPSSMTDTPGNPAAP

Question: Which “BAG3 FULL KD (µM) ± SD” value (BAG3 full-length) does the source give for `c1ccc(-c2nc3ccccn3c2NC2CCCCC2)cc1` [Compound 1, N-cyclohexyl-2-phenylimidazo[1,2-a]pyridin-3-amine] here?
Answer: Its value is “n.b. ^a”.

Question: `CCc1nc2ccccn2c1NC1CCCCC1` [Compound 2, N-cyclohexyl-2-ethylimidazo[1,2-a]pyridin-3-amine] was tested. Which “BAG3 FULL KD (µM) ± SD” value (BAG3 full-length) did it give?
Answer: The value was “n.b”.

Question: For `CCCCNc1c(-c2ccccc2)nc2ccccn12` [Compound 3, N-butyl-2-phenylimidazo[1,2-a]pyridin-3-amine], which “BAG3 FULL KD (µM) ± SD” value (BAG3 full-length) is on record?
Answer: The value was “n.b”.

Question: For `CCCCNc1c(CC)nc2ccccn12` [Compound 4, N-butyl-2-ethylimidazo[1,2-a]pyridin-3-amine], which “BAG3 FULL KD (µM) ± SD” value (BAG3 full-length) is on record?
Answer: Its value is “n.b”.

Question: `Brc1ccc2nc(-c3ccccc3)c(NC3CCCCC3)n2c1` [Compound 5, 6-bromo-N-cyclohexyl-2-phenylimidazo[1,2-a]pyridin-3-amine] was tested. Which “BAG3 FULL KD (µM) ± SD” value (BAG3 full-length) did it give?
Answer: Its value is “n.b”.

Question: With `CCc1nc2ccc(Br)cn2c1NC1CCCCC1` [Compound 6, 6-bromo-N-cyclohexyl-2-ethylimidazo[1,2-a]pyridin-3-amine] as the compound, how does the “BAG3 FULL KD (µM) ± SD” value (BAG3 full-length) read?
Answer: The value was “n.b”.

Question: `CCc1ccc(-c2nc3cc(Br)ccn3c2NC(C)C)cc1` [Compound 7, 7-bromo-2-(4-ethylphenyl)-N-isopropylimidazo[1,2-a]pyridin-3-amine] was tested. Which “BAG3 FULL KD (µM) ± SD” value (BAG3 full-length) did it give?
Answer: The value was “n.b”.

Question: `Brc1ccn2c(Nc3ccc4ccccc4c3)c(-c3ccccc3Br)nc2c1` [Compound 8, 7-bromo-2-(2-bromophenyl)-N-(naphthalen-2-yl)imidazo[1,2-a]pyridin-3-amine] was tested. Which “BAG3 FULL KD (µM) ± SD” value (BAG3 full-length) did it give?
Answer: The value was “n.b”.

Question: How did the “BAG3 FULL KD (µM) ± SD” value (BAG3 full-length) turn out when `CCc1ccc(-c2nc3cc(Br)ccn3c2Nc2ccc3ccccc3c2)cc1` [Compound 9, 7-bromo-2-(4-ethylphenyl)-N-(naphthalen-2-yl)imidazo[1,2-a]pyridin-3-amine] was run?
Answer: The value was “n.b”.

Question: `CCc1ccc(-c2nc3ccc(Cl)cn3c2NC(C)C)cc1` [Compound 11, 6-chloro-2-(4-ethylphenyl)-N-isopropylimidazo[1,2-a]pyridin-3-amine] was tested. Which “BAG3 FULL KD (µM) ± SD” value (BAG3 full-length) did it give?
Answer: Its value is “n.b”.

Question: `Clc1ccc2nc(-c3ccccc3Br)c(Nc3ccc4ccccc4c3)n2c1` [Compound 12, 2-(2-bromophenyl)-6-chloro-N-(naphthalen-2-yl)imidazo[1,2-a]pyridin-3-amine] was tested. Which Kd (BAG3-BD) did it give?
Answer: Its Kd is 14.7 ± 2.69 µM.

Question: And the mortality at 25 µM (HeLa cells; Homo sapiens, 25 µM)?
Answer: Its mortality at 25 µM is 40%.

Question: What about the mortality at 100 µM (HeLa cells; Homo sapiens) of the same compound?
Answer: The mortality at 100 µM was 60%.

Question: What about the IC50 (HeLa cells; Homo sapiens, seven concentrations (1 to 100 µM)) of the same compound?
Answer: The IC50 was 38.9 ± 3.49 µM.

Question: And the Kd (BAG3 full-length)?
Answer: The Kd was 20.7 ± 0.42 µM.

Question: `COc1ccc(Nc2c(-c3cc(OC)ccc3F)nc3cc(C)ccn23)cc1` [Compound 13, 2-(2-fluoro-5-methoxyphenyl)-N-(4-methoxyphenyl)-7-methylimidazo[1,2-a]pyridin-3-amine] was tested. Which “BAG3 FULL KD (µM) ± SD” value (BAG3 full-length) did it give?
Answer: The value was “n.b”.

Question: How did the Kd (BAG3-BD) turn out when `COc1ccc(F)c(-c2nc3cc(C)ccn3c2NCc2ccccc2)c1` [Compound 14, N-benzyl-2-(2-fluoro-5-methoxyphenyl)-7-methylimidazo[1,2-a]pyridin-3-amine] was run?
Answer: The Kd was 16.9 ± 5.87 µM.

Question: What about the mortality (HeLa cells; 25 µM) of the same compound?
Answer: The mortality was “lost its effect”.

Question: And the mortality at 100 µM (HeLa cells; Homo sapiens)?
Answer: The mortality at 100 µM was 50%.

Question: And the Kd (BAG3 full-length)?
Answer: The Kd was 76.2 ± 5.44 µM.

Question: With `CCOC(=O)CN1C(=O)S/C(=C\c2ccc(O)c(O)c2)C1=O` [LK4, (Z)-ethyl 2-(5-(3,4-dihydroxybenzylidene)-2,4-dioxothiazolidin-3yl)acetate, reference compound] as the compound, how does the Kd (BAG3-BD) read?
Answer: The Kd was 0.18 ± 0.02 µM.

Question: And the Kd (BAG3 full-length)?
Answer: The Kd was 19.9 ± 6.58 µM.
